The target of assay [1] is human DAT (Homo sapiens, UniProt Q01959). As to the kind of experiment: Fluorescence-based neurotransmitter uptake assay, HEK-hDAT cells. The format is cell-based.
Assay [2] has as its system DAT. Further details: method as in PMID 10997723. As to conditions: effect of isethionate on mazindol binding; cited from earlier work.
The subject of assay [3] is DAT. To be noted: cited from earlier work.
The subject of assay [4] is NET. As to conditions: cited from earlier work.
Assay [5] concerns SERT. As to conditions: cited from earlier work.
Setting [6] is: DAT inhibition by monovalent ions.
Setting [7] is: read-out: Literature IC50, substrate uptake assay, ref A.J. Eshleman, et al., J Pharmacol Exp Ther 289 (1999) 877-885.
[8] abbreviates: read-out: Literature IC50, substrate uptake assay, ref M.J. Hansard, et al., J Pharmacol Exp Ther 303 (2002) 952-958.

Several values for one entry are separate records, joined by “and”; a condition that tells them apart may be missing. Equal values may be shown once. Read-outs that look alike come from different tables or passages of the source.

human DAT, sequence (Q01959 whole entry): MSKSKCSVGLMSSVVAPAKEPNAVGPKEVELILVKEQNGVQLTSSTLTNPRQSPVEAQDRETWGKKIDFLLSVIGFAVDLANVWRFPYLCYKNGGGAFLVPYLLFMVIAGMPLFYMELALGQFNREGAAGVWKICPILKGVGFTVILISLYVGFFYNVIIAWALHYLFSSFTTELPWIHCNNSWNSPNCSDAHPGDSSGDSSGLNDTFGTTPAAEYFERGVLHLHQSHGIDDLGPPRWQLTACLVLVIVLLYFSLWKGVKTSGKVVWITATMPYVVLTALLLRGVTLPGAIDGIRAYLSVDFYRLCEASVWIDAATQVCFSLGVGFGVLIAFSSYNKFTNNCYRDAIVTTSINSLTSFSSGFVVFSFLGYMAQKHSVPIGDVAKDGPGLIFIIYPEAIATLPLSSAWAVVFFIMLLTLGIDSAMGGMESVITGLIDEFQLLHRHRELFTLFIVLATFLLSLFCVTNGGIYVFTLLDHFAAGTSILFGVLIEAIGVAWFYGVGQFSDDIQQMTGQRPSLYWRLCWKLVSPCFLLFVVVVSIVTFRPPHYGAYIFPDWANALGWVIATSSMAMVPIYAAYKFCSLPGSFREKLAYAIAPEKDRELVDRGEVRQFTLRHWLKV

By IC50 is commonly meant the point on the concentration scale where inhibition reaches its midpoint. On to `C[N+](C)(C)CCO` [Choline], for which, in assay [1], the “Hill coefficient (h)” value came out at 1.4 ± 0.2. Also, in assay [1] (setting [6]), the IC50 is 37000 µM and 36600 µM.
In the case of `O=C(O)[C@H](O)[C@@H](O)[C@H](O)[C@H](O)CO` [Gluconate], in assay [1] (setting [6]), the “Hill coefficient (h)” value amounted to 1.2 ± 0.3 and the IC50 turned out to be 1400 ± 200 µM.
In the case of `O=S(=O)(O)CCO` [Isethionate], in assay [1] (setting [6]), the “Hill coefficient (h)” value is reported as 0.8 ± 0.2 and the IC50 stood at 3300 ± 600 µM. Besides, in assay [2], the “reduction of the binding of a DAT inhibitor, mazindol” value is listed as “more than 50%”.
For `CNC[C@H](O)[C@H](O)[C@H](O)[C@H](O)CO` [NMDG], in assay [1] (setting [6]), the “Hill coefficient (h)” value is 11 and 10.6 ± 3.8; the IC50 was determined as 3700 ± 200 µM.
As to `CNCCC(Oc1ccccc1OC)c1ccccc1` (stereo not drawn) [Nisoxetine], the IC50 was […] in assay [3] (setting [7]), 0.0053 µM in assay [4] (setting [7]) and […] in assay [5] (setting [7]).
Take `Fc1ccc(C(OCCN2CCN(CCCc3ccccc3)CC2)c2ccc(F)cc2)cc1` [Vanoxerine]: the IC50 is […] in assay [3] (setting [8]), […] in assay [4] (setting [8]) and […] in assay [5] (setting [8]).

Source of the values: article PMC10604324, “Implications for Combination Therapy of Selective Monoamine Reuptake Inhibitors on Dopamine Transporters” (Biomedicines, 2023).
